Assay results as given in the supplement of paper PMC8633005.

Experiments:
Assay in all cases: drug sensitivity score (DSS) (DSS (unitless, 0-50 scale)); higher = more sensitive (stronger viability inhibition); extreme values may be limits of the assay
Settings in all cases: 72 h; culture: 2D
[1] = test system: FM-MEL-3
Procedure, shortened: (§1)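 Melanoma cell lines and patient-derived melanoma cultures at 1000–1500 cells per well were exposed in 2D, in 384-well plates, to a 527-compound oncology library at five concentrations spanning a 10,000-fold range for 72 h at 37 °C. CellTiter-Glo luminescence then measured viability. From dose-response curves fitted in the in-house Breeze software, a drug sensitivity score, a modified area-under-curve measure, was obtained.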

[2] = test system: SK-MEL-2
Procedure, shortened: as §1

[3] = test system: Bowes
Procedure, shortened: as §1

[4] = test system: FM-MEL-2
Procedure, shortened: as §1

[5] = test system: WM165
Procedure, shortened: as §1

[6] = test system: FM-MEL-6
Procedure, shortened: as §1

[7] = test system: WM852
Procedure, shortened: as §1

[8] = test system: SK-MEL-28
Procedure, shortened: as §1

Row | SMILES | drug sensitivity score [1] | drug sensitivity score [2] | drug sensitivity score [3] | drug sensitivity score [4] | drug sensitivity score [5] | drug sensitivity score [6] | drug sensitivity score [7] | drug sensitivity score [8]
1 | C[C@@H]1C=C2C(=O)O[C@@H]3CC[C@H](C1)[C@]23O [Galiellalactone] | 5.2 | 0 | 8.4 | 2.9 | 6.9 | 0.7 | 5.1 | 5.8
2 | Cc1cccc(-c2nn3c(c2-c2ccnc4ccc(C(N)=O)cc24)CCC3)n1 [Galunisertib] | 0 | 0 | 0 | 0 | 0 | 0 | 0 | 0
3 | Cc1cc(Nc2cc(CN3CCOCC3)c3nc(C)c(Cc4ccc(Cl)cc4F)n3n2)n[nH]1 [Gandotinib] | 6.9 | 0 | 4.8 | 3 | 5.9 | 2.2 | 4 | 3.6
4 | CC(C)c1cc(-c2n[nH]c(=O)n2-c2ccc3c(ccn3C)c2)c(O)cc1O [Ganetespib] | 21 | 12.8 | 15.2 | 11.2 | 17.1 | 7 | 9.9 | 8.5
5 | CN(C)C1CCN(C(=O)c2ccc(NC(=O)Nc3ccc(-c4nc(N5CCOCC5)nc(N5CCOCC5)n4)cc3)cc2)CC1 [Gedatolisib] | 9.8 | 10.6 | 12.6 | 6.1 | 14.8 | 9.4 | 7.5 | 9.5
6 | COc1cc2ncnc(Nc3ccc(F)c(Cl)c3)c2cc1OCCCN1CCOCC1 [Gefitinib] | 2.4 | 0 | 2.9 | 2.6 | 4.6 | 2.7 | 3 | 2.9
7 | Nc1ccn([C@@H]2O[C@H](CO)[C@@H](O)C2(F)F)c(=O)n1 [Gemcitabine] | 8.6 | 6.3 | 0 | 4.3 | 18.9 | 10.3 | 0 | 13.7
8 | CCc1nc(C(N)=O)c(Nc2ccc(N3CCC(N4CCN(C)CC4)CC3)c(OC)c2)nc1NC1CCOCC1 [Gilteritinib] | 5 | 1.7 | 0 | 3.7 | 2.8 | 1.9 | 1.8 | 2.7
9 | CCN(CC)Cc1ccc2cc(COC(=O)Nc3ccc(C(=O)NO)cc3)ccc2c1 [Givinostat] | 5.2 | 5.6 | 2 | 4.3 | 6.6 | 5.8 | 2.2 | 4.9
10 | CN1CC[C@@H](NC(=O)Nc2ccc(C#N)cc2)C[C@@H]1c1nc2ccccc2[nH]1 [Glasdegib] | 0 | 0 | 0 | 0 | 0 | 0 | 0 | 0
11 | COCCNCc1ccc(-c2cc3nccc(Oc4ccc(NC(=S)NC(=O)Cc5ccc(F)cc5)cc4F)c3s2)nc1 [Glesatinib] | 0 | 0 | 0 | 0.4 | 0 | 0 | 0 | 0
12 | CN1CCN(C2CCN(C(=O)Nc3cc(Oc4ccc(NC(=O)C5(C(=O)Nc6ccc(F)cc6)CC5)c(F)c4)ccn3)CC2)CC1 [Golvatinib] | 0 | 0 | 2.3 | 1.5 | 0 | 0 | 0.5 | 0
13 | CC(C)C[C@H](NC(=O)[C@@H](COC(C)(C)C)NC(=O)[C@H](Cc1ccc(O)cc1)NC(=O)[C@H](CO)NC(=O)[C@H](Cc1c[nH]c2ccccc12)NC(=O)[C@H](Cc1cnc[nH]1)NC(=O)[C@@H]1CCC(=O)N1)C(=O)N[C@@H](CCCNC(=N)N)C(=O)N1CCC[C@H]1C(=O)NNC(N)=O [Goserelin] | 0 | 0 | 0 | 0 | 0 | 0 | 0 | 0
14 | O=S(=O)(c1cccc2c(O)nccc12)N1CCCNCC1 [Hydroxyfasudil] | 0 | 0 | 0 | 0 | 0 | 1.8 | 0 | 0
15 | NC(=O)NO [Hydroxyurea] | 6.8 | 0 | 2.4 | 0 | 0.1 | 2.2 | 0 | 0
16 | COc1cc2c(cc1-c1c(C)noc1C)ncc1[nH]c(=O)n([C@H](C)c3ccccn3)c12 [I-BET151] | 4.7 | 0.3 | 4.6 | 5.2 | 8.7 | 5 | 0 | 3.1
17 | O=C(O)c1ccc(O)c2ncccc12 [IOX-1] | 0.8 | 0 | 0 | 0.4 | 4.3 | 0.9 | 0 | 0.8
18 | O=C(O)CNC(=O)c1c(O)c2ccccc2n(Cc2ccccc2)c1=O [IOX-2] | 0 | 0 | 0 | 0 | 0 | 0 | 0.2 | 0
19 | C=CC(=O)N1CCC[C@@H](n2nc(-c3ccc(Oc4ccccc4)cc3)c3c(N)ncnc32)C1 [Ibrutinib] | 0 | 0 | 2.8 | 0.2 | 0 | 0 | 0 | 0
20 | C#Cc1cccc(Nc2ncnc3cc4c(cc23)OCCOCCOCCO4)c1 [Icotinib] | 0.1 | 0 | 0 | 0.4 | 0 | 0.9 | 0.1 | 0.1
21 | CC(=O)[C@]1(O)Cc2c(O)c3c(c(O)c2[C@@H](O[C@H]2C[C@H](N)[C@H](O)[C@H](C)O2)C1)C(=O)c1ccccc1C3=O [Idarubicin] | 10.9 | 9.7 | 5.4 | 8.4 | 15.4 | 8.1 | 4.8 | 8.4

Row | SMILES | drug sensitivity score [1] | drug sensitivity score [2] | drug sensitivity score [3] | drug sensitivity score [4] | drug sensitivity score [5] | drug sensitivity score [6] | drug sensitivity score [7] | drug sensitivity score [8]
22 | COc1cc(C(=O)O)ccc1NC(=O)[C@@H]1N[C@@H](CC(C)(C)C)[C@](C#N)(c2ccc(Cl)cc2F)[C@H]1c1cccc(Cl)c1F [Idasanutlin] | 19.7 | 0 | 3.4 | 3.7 | 22.7 | 0.3 | 0 | 0
23 | CC[C@H](Nc1ncnc2[nH]cnc12)c1nc2cccc(F)c2c(=O)n1-c1ccccc1 [Idelalisib] | 1 | 0 | 0.2 | 3.1 | 0.7 | 1.8 | 0.4 | 4.1
24 | Cc1ccc(NC(=O)c2ccc(CN3CCN(C)CC3)cc2)cc1Nc1nccc(-c2cccnc2)n1 [Imatinib] | 0 | 0 | 1 | 0.8 | 0.1 | 0 | 0.7 | 0.2
25 | CC(C)Cn1cnc2c(N)nc3ccccc3c21 [Imiquimod] | 0 | 0 | 4.7 | 0 | 0 | 0 | 0.1 | 0
26 | O=C(Nc1ccncc1)C(=O)c1cn(Cc2ccc(Cl)cc2)c2ccccc12 [Indibulin] | 6.1 | 3.7 | 11.1 | 1.4 | 7.8 | 6.9 | 5.3 | 4
27 | CCN1CCN(c2ccc(Nc3cc(N(C)C(=O)Nc4c(Cl)c(OC)cc(OC)c4Cl)ncn3)cc2)CC1 [Infigratinib] | 0 | 0 | 0 | 0 | 0 | 0 | 0 | 0
28 | CC(C)NC[C@@H](C(=O)N1CCN(c2ncnc3c2[C@H](C)C[C@H]3O)CC1)c1ccc(Cl)cc1 [Ipatasertib] | 0.3 | 0 | 0 | 2.1 | 2.2 | 0.9 | 0 | 1.7
29 | CCC(C)n1ncn(-c2ccc(N3CCN(c4ccc(OCC5COC(Cn6cncn6)(c6ccc(Cl)cc6Cl)O5)cc4)CC3)cc2)c1=O (stereo unspecified) [Itraconazole] | 2.8 | 0 | 4.7 | 1.4 | 0 | 0 | 0.9 | 0
30 | N#Cc1ccnc(N2C(=O)CC[C@H]2C(=O)N(c2cncc(F)c2)[C@H](C(=O)NC2CC(F)(F)C2)c2ccccc2Cl)c1 [Ivosidenib] | 0 | 0 | 0 | 0 | 0 | 0.3 | 0 | 0
31 | C/C(=C\c1csc(C)n1)[C@@H]1C[C@@H]2O[C@]2(C)CCC[C@H](C)[C@H](O)[C@@H](C)C(=O)C(C)(C)[C@@H](O)CC(=O)N1 [Ixabepilone] | 5 | 2.9 | 8.5 | 0.8 | 3.6 | 3.7 | 6.1 | 2.3
32 | CC(C)C[C@H](NC(=O)CNC(=O)c1cc(Cl)ccc1Cl)B(O)O [Ixazomib] | 13.6 | 11.2 | 8.8 | 4.9 | 10.4 | 17 | 0.9 | 9.6
33 | Nc1cc(COc2c(Cl)cc(C[C@H](N)C(=O)O)cc2Cl)c2oc(-c3ccccc3)nc2c1 [JPH203] | 0 | 0 | 0 | 0 | 0 | 0.6 | 0 | 0
34 | CS(=O)(=O)CCNCc1ccc(-c2ccc3ncnc(Nc4ccc(OCc5cccc(F)c5)c(Cl)c4)c3c2)o1 [Lapatinib] | 0.2 | 0 | 1.1 | 0.6 | 0 | 0.1 | 0 | 0
35 | O=C(Nc1cnn2ccc(N3CCC[C@@H]3c3cc(F)ccc3F)nc12)N1CC[C@H](O)C1 [Larotrectinib] | 0 | 0 | 0 | 0 | 0 | 0 | 0 | 0
36 | Oc1ccc2c(c1)CC[C@H](c1ccccc1)[C@@H]2c1ccc(OCCN2CCCC2)cc1 [Lasofoxifene] | 0 | 0 | 0 | 0 | 0 | 0 | 0 | 0
37 | Nc1cccc2c1CN(C1CCC(=O)NC1=O)C2=O (stereo unspecified) [Lenalidomide] | 0 | 0 | 0 | 0 | 0 | 0 | 0 | 0
38 | COc1cc2nccc(Oc3ccc(NC(=O)NC4CC4)c(Cl)c3)c2cc1C(N)=O [Lenvatinib] | 0 | 0 | 1.3 | 0 | 0 | 0 | 0 | 0
39 | N#Cc1ccc(C(c2ccc(C#N)cc2)n2cncn2)cc1 [Letrozole] | 0 | 0 | 0 | 0 | 0 | 0 | 0 | 0
40 | Cc1ccc(F)c(NC(=O)Nc2ccc(-c3cccc4[nH]nc(N)c34)cc2)c1 [Linifanib] | 0 | 0 | 2.2 | 0.1 | 0 | 0 | 0 | 0
41 | C[C@]1(O)C[C@@H](c2nc(-c3ccc4ccc(-c5ccccc5)nc4c3)c3c(N)nccn32)C1 [Linsitinib] | 4.8 | 0 | 0 | 3.6 | 1.3 | 0.9 | 1 | 0
42 | CCNCCS(=O)(=O)NC[C@@]1(c2ccccc2)SC(NC(=O)C(C)(C)C)=NN1C(=O)C(C)(C)C [Litronesib] | 8.6 | 13.1 | 18.8 | 2.4 | 18.9 | 10.2 | 23.7 | 2.2
